Results: US20260022098A1, “BULLEYACONITINE A DERIVATIVE WITH ANALGESIC ACTIVITY, AND PREPARATION METHOD AND APPLICATION THEREOF” (priority 2023, published 2026)
Read-outs that look alike come from different tables or passages of the source. Marks after values point to notes of the source that are not given here.

Tests used:
[1] = test system: Kunming mice; assay: Analgesic activity by acetic acid-induced writhing method (writhing inhibition rate, ED50); assay type: in vivo; details: Mus musculus, sc; for ED50: Probit regression, read-out: ED50; for inhibition in vivo at 0.05 mg/kg / inhibition in vivo at 0.5 mg/kg: read-out: Analgesia rate (%) ± SEM
In short: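 Kunming mice (22±2 g, 1:1 sex, 12 h fasted, 10/group) got compound s.c. (dissolved 1:1 molar with 0.1 mol/L HCl, diluted in saline); 0.7% acetic acid i.p. 15 min later, writhes counted over 15 min. Inhibition rate vs saline blank; ED50 by Probit regression over ≥5 doses.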

[2] = Acute toxicity / median lethal dose (LD50) determination, subcutaneous injection; assay type: in vivo, mice; set-up: key to Acute toxicity: if death occurred, (+) represented as positive; if no death occurred, (−) represented as negative; details: both sexes, Kunming, mouse, in vivo, sc; mice, subcutaneous, survival within 24 h, Probit regression; >X = no death or toxic symptoms at X mg/kg
In short: (§1)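 Kunming mice (22±2 g, 1:1 male:female, fasted 12 h), 10 per group, given compound subcutaneously at 0.1 mL/10 g in saline after 1:1 molar dissolution in 0.1 mol/L HCl. At least 5 proportional dose groups set from a 20 mg/kg pilot; 24 h survival, LD50 by Probit regression.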

[3] = test system: Kunming mice; assay: as above; assay type: in vivo; set-up: key to Acute toxicity: if death occurred, (+) represented as positive; if no death occurred, (−) represented as negative; details: mice administered 20 mg/kg subcutaneously, presence of death within 24 h
In short: as §1

[4] = test system: Kunming mice; assay: Calculation of therapeutic index (TI = LD50/ED50); assay type: in vivo
Method: (3) Calculation of Therapeutic Index (TI)
The therapeutic index of each compound was calculated based on the median effective dose and the median lethal dose, which were specifically as follows: therapeutic index (TI)=median lethal dose (LD50)/median effective dose (ED50).

[5] = test system: RAW 264.7 cells; assay: MTT assay, viability of RAW 264.7 cells; assay type: cell-based; details: compound diluted to 30 mol/L (so in the source), 12 h
Method: (§2) The effect of the compound to be tested on viability of RAW 264.7 cells at a concentration of […] was assessed through MTT assay (Methylthiazolyldiphenyl-tetrazolium bromide assay), and the inhibition on NO release in the inflammatory response of LPS-induced RAW 264.7 cells at 30 µM was determined through Griess method. Specific methods were described as follows.
An MTT solution (5 mg/mL) was prepared with a PBS buffer, filter-sterilized through a 0.22 μm filter membrane, and stored protected from light at low temperature. Each compound was dissolved in DMSO to prepare a 50 mmol/L stock solution, and stored from light at low (frozen) temperature. The stock solution was diluted to 30 mol/L with DMEM (Dulbecco's modified Eagle's medium) containing 10% FBS (fetal bovine serum). RAW264.7 cells beyond third passage were added to a culture medium and gently pipetted to detach, forming a cell suspension. 10 μL of the cell suspension was applied onto a hemocytometer slide for counting, and cells were seeded into 96-well plates at a density of 6×10^3 cells per well with 100 μL of the cell suspension per well. After incubated at 37° C. with 5% CO2 for 24 h, supernatant was removed. A zero-adjustment group (CO group) received 100 μL of medium per well, the blank group (CK group) received 100 μL of DMSO (1/1000 dilution) per well, and the experimental groups received 100 μL of the test samples per well. After 12 h, supernatant was removed, and […] of MTT solution was added into each well at 120 μL per well. After incubated in COz at a constant temperature for 4 h, supernatant was removed, and DMSO was added into each well by 150 μL per well. The mixture was shaken at 50 r/min for 10 min and subjected to an absorbance test at 492 nm. Relative cell viability (x) was calculated through a formula as follows: relative cell viability (%)=(ODTest−ODCO)/(ODCK−ODCO)×100%.

[6] = test system: LPS-induced RAW 264.7 cells; assay: Griess assay, inhibition of NO release in LPS-induced RAW 264.7 cells; assay type: cell-based; details: Griess method, compound at 30 M (so in the source), 22 h
Method: as §2
RAW264.7 cells beyond third passage were added to a culture medium and gently pipetted to detach, forming a cell suspension. 10 μL of the cell suspension was applied onto a hemocytometer slide for counting, and cells were seeded into a 96-well plate at a density of 3×10^4 cells per well with 100 μL of the cell suspension per well. After incubated at 37° C. with […] for 24 h, supernatant was removed. The blank group received 100 μL of DMSO (1/1000 dilution) per well, a LPS (lipopolysaccharide) group received 100 μL of DMSO (1/1000 dilution) per well, and the experimental groups received 100 μL of the test samples per well. The LPS group received 1 μg/ml of LPS by […] per well, and the experimental groups received […] of LPS by 3 μg per well. After 22 h, 50 μL of supernatant was transferred into another 96-well plate, added with Griess Reagent I in a NO assay kit by 50 μL per well, then added with Griess Reagent II by 50 μL per well, and subjected to an absorbance test at 562 nm. Nitric oxide (NO) concentration was calculated based on a standard curve, which was specifically as follows: NO inhibition rate (%)=(ODLPS−ODTest)/(ODLPS−ODBlank)×100).

[7] = acetic acid-induced writhing, mice, subcutaneous
[8] = dosing concentration 0.05 mg/kg, subcutaneous, acetic acid-induced writhing, mice
[9] = dosing concentration 0.5 mg/kg, subcutaneous, acetic acid-induced writhing, mice

Row | Structure (SMILES) | ED50 [1, 7] [mg/kg] | inhibition in vivo at 0.05 mg/kg [1, 8] [%] | LD50 [2] [mg/kg] | Acute toxicity [3] | TI [4] | RAW cell viability [5] | inhibition in vivo at 0.5 mg/kg [1, 9] [%] | inhibition in vivo at 0.05 mg/kg [1] [%] | inhibition in vivo at 0.5 mg/kg [1] [%] | Inflammatory NO inhibition rate [6] [%]
1 | CCO[C@]12C[C@H](OC)[C@@]3(OC(=O)c4ccc(OC)cc4)CC(C1[C@H]3OC(=O)c1ccc(OC)cc1)[C@]13C4[C@@H](OC)C2[C@H]1N(CC)C[C@]4(COC)CC[C@@H]3OC (stereo partly shown) [Compound 13] | 0.082 | 49.4 ± 1.3 | > 100 | − | >1219.5 | 8.29 ± 2.8 % |  |  |  | 
2 | CCO[C@]12C[C@H](OC)[C@@]3(OC(=O)c4ccc(F)cc4)CC(C1[C@H]3OC(=O)c1ccc(F)cc1)[C@]13C4[C@@H](OC)C2[C@H]1N(CC)C[C@]4(COC)CC[C@@H]3OC (stereo partly shown) [Compound 59] |  | 43.5 ± 2.5 |  | − |  | 7.00 ± 1.38 % | 57.6 ± 0.9 |  |  | 
3 | CCO[C@]12C[C@H](OC)[C@@]3(OC(=O)c4cccnc4)CC(C1[C@H]3OC(=O)c1ccc(OC)cc1)[C@]13C4[C@@H](OC)C2[C@H]1N(CC)C[C@]4(COC)CC[C@@H]3OC (stereo partly shown) [Compound 28] |  | 36.1 ± 2.1 |  | − |  | 83.03 ± 4.69**^ % |  |  |  | 
4 | CCO[C@]12C[C@H](OC)[C@@]3(OC(=O)c4ccc([N+](=O)[O-])cc4)CC(C1[C@H]3OC(=O)c1ccc([N+](=O)[O-])cc1)[C@]13C4[C@@H](OC)C2[C@H]1N(CC)C[C@]4(COC)CC[C@@H]3OC (stereo partly shown) [Compound 38] |  |  |  | − |  | 99.37 ± 10.29 ns % |  | 42.4 ± 1.5 | 56.2 ± 1 | 23 ± 5.6
5 | CCO[C@]12C[C@H](OC)[C@@]3(OC(=O)C4CCCCC4)CC(C1[C@H]3OC(=O)C1CCCCC1)[C@]13C4[C@@H](OC)C2[C@H]1N(CC)C[C@]4(COC)CC[C@@H]3OC (stereo partly shown) [Compound 5] | 0.083 | 49.7 ± 1.1 | > 100 | − | >1204.8 | 28.05 ± 4.84 % |  |  |  | 
6 | CCO[C@]12C[C@H](OC)[C@@]3(OC(=O)c4ccc([N+](=O)[O-])cc4)CC(C1[C@H]3OC(=O)c1ccc(OC)cc1)[C@]13C4[C@@H](OC)C2[C@H]1N(CC)C[C@]4(COC)CC[C@@H]3OC (stereo partly shown) [Compound 39] | 0.195 | 51.1 ± 1.4 | > 100 | − | >512.8 | 6.97 ± 0.93 % |  |  |  | 
7 | CCO[C@]12C[C@H](OC)[C@@]3(OC(=O)C4CCOCC4)CC(C1[C@H]3OC(=O)C1CCOCC1)[C@]13C4[C@@H](OC)C2[C@H]1N(CC)C[C@]4(COC)CC[C@@H]3OC (stereo partly shown) [Compound 23] | 0.073 | 57.9 ± 0.6 | > 100 | − | >1369.9 | 81.35 ± 3.48 % |  |  |  | 
8 | Cc1ccc(-c2cc(C(F)(F)F)nn2-c2ccc(S(N)(=O)=O)cc2)cc1 [Celecoxib, reference compound] |  |  |  |  |  | 93.09 ± 2.14 ns % |  |  |  | 74 ± 2.2
9 | CCN1C[C@]2(COC)CC[C@H](OC)[C@@]34C5C[C@]6(OC(=O)c7ccco7)[C@@H](OC)C[C@@](OC(C)=O)(C5[C@H]6OC(=O)c5ccc(OC)cc5)C([C@H](OC)C23)[C@@H]14 (stereo partly shown) [Compound 12] |  | 45.7 ± 0.6 |  | − |  | 119.75 ± 1.11***^ % | 54.2 ± 1.4 |  |  | 17 ± 5.14
10 | CCCC(=O)O[C@]12CC3C([C@H]1OC(=O)c1ccc(OC)cc1)[C@](OC(C)=O)(C[C@@H]2OC)C1[C@H](OC)C2[C@@]4(COC)CC[C@H](OC)[C@@]32[C@@H]1N(CC)C4 (stereo partly shown) [Compound 79] |  | 37.9 ± 2 |  | − |  | 101.29 ± 2.63 ns % |  |  |  | 42 ± 4.69
11 | CCO[C@]12C[C@H](OC)[C@@]3(OC(=O)CC(C)(C)C)CC(C1[C@H]3OC(=O)CC(C)(C)C)[C@]13C4[C@@H](OC)C2[C@H]1N(CC)C[C@]4(COC)CC[C@@H]3OC (stereo partly shown) [Compound 88] | 0.161 | 47.7 ± 0.6 | > 100 | − | >621.1 | 74.05 ± 10.06 % | 65.07 ± 0.6 |  |  | 
12 | CCO[C@]12C[C@H](OC)[C@@]3(OC(=O)c4cccs4)CC(C1[C@H]3OC(=O)c1cccs1)[C@]13C4[C@@H](OC)C2[C@H]1N(CC)C[C@]4(COC)CC[C@@H]3OC (stereo partly shown) [Compound 17] |  | 44.44 ± 0.4 |  | − |  | 87.25 ± 2.09 ns % | 54.7 ± 1.5 |  |  | 47 ± 3.49
13 | CCO[C@]12C[C@H](OC)[C@@]3(OC(=O)CC(C)(C)C)CC(C1[C@H]3OC(=O)c1ccc(OC)cc1)[C@]13C4[C@@H](OC)C2[C@H]1N(CC)C[C@]4(COC)CC[C@@H]3OC (stereo partly shown) [Compound 90] |  | 41.9 ± 1.9 |  | − |  | 101.74 ± 7.63 ns % | 59 ± 0.8 |  |  | 12 ± 4.85
14 | CCO[C@]12C[C@H](OC)[C@@]3(OC(=O)C4CCOCC4)CC(C1[C@H]3OC(=O)c1ccc(OC)cc1)[C@]13C4[C@@H](OC)C2[C@H]1N(CC)C[C@]4(COC)CC[C@@H]3OC (stereo partly shown) [Compound 24] |  | 46.1 ± 1.7 |  | − |  | 94.97 ± 7.74 ns % | 50.9 ± 1.7 |  |  | 8 ± 2.69
15 | CCO[C@]12C[C@H](OC)[C@@]3(OC(=O)c4ccc(Cl)cc4Cl)CC(C1[C@H]3OC(=O)c1ccc(Cl)cc1Cl)[C@]13C4[C@@H](OC)C2[C@H]1N(CC)C[C@]4(COC)CC[C@@H]3OC (stereo partly shown) [Compound 73] |  |  |  | − |  |  |  | 33.5 ± 2.7 |  | 
16 | CCCC(=O)O[C@@H]1C2C3C[C@]1(OC(=O)CCC)[C@@H](OC)C[C@]2(OCC)C1[C@H](OC)C2[C@@]4(COC)CC[C@H](OC)[C@@]32[C@@H]1N(CC)C4 (stereo partly shown) [Compound 77] |  |  |  | − |  |  |  | 34.2 ± 1.8 |  | 
17 | CCO[C@]12C[C@H](OC)[C@@]3(OC(=O)C4CCCCC4)CC(C1[C@H]3OC(=O)c1ccc(OC)cc1)[C@]13C4[C@@H](OC)C2[C@H]1N(CC)C[C@]4(COC)CC[C@@H]3OC (stereo partly shown) [Compound 14] |  | 40.3 ± 1.7 |  | − |  | 13.36 ± 0.9***^ % | 44.4 ± 2.1 |  |  | 
18 | CCN1C[C@]2(COC)CC[C@H](OC)[C@@]34C5C[C@]6(OC(=O)c7ccc(OC)cc7)[C@@H](OC)C[C@@](OC)(C5[C@H]6OC(=O)c5ccc(OC)cc5)C([C@H](OC)C23)[C@@H]14 (stereo partly shown) [Compound 31] |  |  |  | − |  |  |  | 17 ± 2.2 |  | 
